Measured values taken from patent US11040963B2 (priority 2017, dated 2021).
pIC50: −log10 of the molar value.

Legend:
[1] = target: HA H5 A/Vietnam/1203/04 (Influenza A virus (A/Vietnam/1203/2004(H5N1)), UniProt Q5EP31); experiment: biochemical; conditions: Competition binding (AlphaLISA), pIC50 H5 A/Vietnam/1203/04
[2] = system: H1N1 A/New Caledonia/20/99; experiment: microbe, parasite or virus in culture; assay type: cell-based, influenza A virus; conditions: Influenza A virus, H1N1, MDCK, 96 h, read-out: Virus neutralization assay (VNA), pEC50 H1N1 A/New Caledonia/20/99 (converted)
in vitro = conditions: dog, Cytotoxicity (pCC50) MDCK
[3] = target: HA H1 A/California/07/09 (Influenza A virus (A/California/07/2009(H1N1)), UniProt C3W5X2); experiment: biochemical; conditions: Competition binding (AlphaLISA), pIC50 H1 A/California/07/09
[4] = target: HA H1 A/New Caledonia/20/99 (Influenza A virus (A/New Caledonia/20/1999(H1N1)), UniProt Q6WG00); experiment: biochemical; conditions: Competition binding (AlphaLISA), pIC50 H1 A/New Caledonia/20/99
H1N1 A/California/07/09 = experiment: microbe, parasite or virus in culture; assay type: cell-based, influenza A virus; conditions: Influenza A virus, H1N1, MDCK, 96 h, read-out: Virus neutralization assay (VNA), pEC50 H1N1 A/California/07/09 (converted)
H5N1 A/Vietnam/1203/04 = experiment: microbe, parasite or virus in culture; assay type: cell-based, influenza A virus; conditions: Influenza A virus, H5N1, MDCK, 96 h, read-out: Virus neutralization assay (VNA), pEC50 H5N1 A/Vietnam/1203/04, MDCK cells, 96 h, CPE by ATPlite (converted); average of repeats
H1N1 A/PR/8/34-MA = experiment: microbe, parasite or virus in culture; assay type: cell-based, influenza A virus; conditions: Influenza A virus, MDCK, 96 h, read-out: Virus neutralization assay (VNA), pEC50 H1N1 A/PR/8/34-MA (converted)

Row | SMILES | pIC50 [1] | EC50 [2] [nM] | CC50 (in vitro) [nM] | pIC50 [3] | pIC50 [4] | EC50 (H1N1 A/California/07/09) [nM] | EC50 (H5N1 A/Vietnam/1203/04) [nM] | EC50 (H1N1 A/PR/8/34-MA) [nM]
1 | COc1ccc2nc(-c3cccc(C(=O)N4CCN(C(c5ccccc5)c5nncs5)CC4)c3)sc2c1 (stereo not drawn) [Example 56] | 5.50 | 398 | > 50100 | 6.40 | 6.80 | 5010 | > 50100 | 
2 | COC(=O)C(c1ccccc1)N1CCN(C(=O)C2CCCN(c3nc4ccc(OC)cc4s3)C2)CC1 (stereo not drawn) [Example 115] | 5.10 | 1260 | 3980 | 6.60 | 6.50 | 2000 | > 50100 | 
3 | COC(=O)[C@H](c1ccccc1)N1CCN(C(=O)c2cccc(-c3nc4cc(C(F)(F)F)ccc4o3)c2)[C@@H](C)C1 [Example 117] | 5.20 | 1260 | > 50100 | 6.90 | 7.00 | 2510 | 31600 | 
4 | O=C(c1cccc(-c2nc3cc(C(F)(F)F)ccc3o2)c1)N1CCN(C(c2ccccc2)c2nnc(C3(O)CNC3)o2)CC1 (stereo not drawn) [Example 87] | 5.60 | 501 | > 50100 | 7.20 | 7.40 | 398 | 39800 | 
5 | COC(=O)C(c1ccccc1)N1CCN(C(=O)c2cccc(-c3nc4cc(Cl)ccc4o3)c2)CC1 (stereo not drawn) [Example 59] | 5.70 | 501 | > 50100 | 7.20 | 7.20 | 398 | 20000 | 
6 | CCOC(=O)[C@@H](c1ccccc1)N1CCN(C(=O)c2cccc(-c3ccc(OC)cc3)c2)CC1 [Example 114] | 6.40 | 1260 | 3980 | 7.00 | 6.90 | 2000 | 31600 | 2510
7 | COc1nnc([C@@H](c2ccccc2)N2CCN(C(=O)c3cc(-c4nc5cc(OC(F)(F)F)ccc5o4)ccn3)CC2)o1 [Example 4] | 7.00 | 79.4 | > 50100 | 7.90 | 8.10 | 100 | 1260 | 
8 | COC(=O)C(c1ccccc1)N1CCN(C(=O)c2cccc(-c3nc4cc(O)ccc4o3)c2)CC1 (stereo not drawn) [Example 30] | 6.20 | 158 | 25100 | 7.60 | 7.60 | 251 | 7940 | 
9 | Cc1nc(C(c2ccccc2)N2CCN(C(=O)c3cccc(-c4nc5cc(C(F)(F)F)ccc5o4)c3)CC2)n[nH]1 (stereo not drawn) [Example 116] | 5.30 | 1580 | 50100 | 6.30 | 6.40 | 1580 | > 50100 | 
10 | CNC(=O)N(Cc1ccccc1)C1CCN(C(=O)c2cccc(-c3nc4ccc(OC)cc4s3)c2)CC1 [Example 118] | 4.60 | 1260 | 2000 | 6.60 | 6.50 | 7940 | 31600 | 
11 | Cc1nnc([C@@H](c2ccccc2)N2CCN(C(=O)c3cc(-c4nc5cc(C(F)(F)F)ccc5o4)ccn3)CC2)o1 [Example 17] | 6.20 | 200 | 7940 | 7.80 | 7.50 | 126 | 3980 | 
12 | Cc1nnc(C(c2ccccc2)N2CCN(C(=O)c3cc(-c4nc5cc(OC(F)(F)F)ccc5o4)ccn3)CC2)o1 (stereo not drawn) [Example 28] | 6.30 | 158 | 15800 | 7.80 | 7.70 | 200 | 3980 | 
13 | COc1ccc2nc(-c3cccc(C(=O)N4CCN([C@@H](c5ccccc5)c5nnc(C)o5)CC4)c3)sc2c1 [Example 124] | 6.20 | 2000 | 15800 | 7.20 | 7.10 | 501 | 3980 | 
14 | Cc1nnc(C(c2ccccc2)N2CCN(C(=O)c3cccc(-c4nc5cc(F)ccc5o4)c3)CC2)o1 (stereo not drawn) [Example 47] | 5.00 | 316 | 31600 | 7.10 | 7.10 | 398 | 15800 | 
